For this assay, the system named is infected PBMCs (VSV-G pseudotyped HIV virus VSV-G/pNLG1-P2A-ΔEnv). As to the kind of experiment: cells. In kind it is cell-based, human. To be noted: Homo sapiens, PBMC, read-out: TACK EC50.

pEC50: −log10 of the molar value.

Regarding `Cc1nc(C)c(Cn2cnc(C(F)(F)C(F)F)c(Oc3cc(Br)cc(C#N)c3)c2=O)c(=O)[nH]1` [Example 7, 3-bromo-5-((1-((2,4-dimethyl-6-oxo-1,6-dihydropyrimidin-5-y1)methyl)-6-oxo-4-(1,1,2,2-tetrafluoroethyl)-1,6-dihydropyrimidin-5-yl)oxy)benzonitrile], the pEC50 (in general, the EC50 on a negative log10 scale, so that one unit is a factor of ten) was 6.45.
As for `Cc1cc(C#N)c(C)c(Oc2c(Br)ncn(Cc3c(C)nc(C)[nH]c3=O)c2=O)c1` [Example 26, 3-((4-bromo-1-((2,4-dimethyl-6-oxo-1,6-dihydropyrimidin-5-yl)methyl)-6-oxo-1,6-dihydropyrimidin-5-yl)oxy)-2,5-dimethylbenzonitrile], the pEC50 is 6.38.
For `Cc1nc(C)c(Cn2cnc(C(F)(F)C(F)(F)F)c(Oc3c(Cl)cc(C#N)cc3Cl)c2=O)c(=O)[nH]1` [Example 96, 3,5-dichloro-4-((1-((2,4-dimethyl-6-oxo-1,6-dihydropyrimidin-5-yl)methyl)-6-oxo-4-(perfluoroethyl)-1,6-dihydropyrimidin-5-yl)oxy)benzonitrile] the value was 6.44; for `COCc1nc(C)c(Cn2cnc(C(F)(F)C(F)F)c(Oc3cc(C(F)F)cc(C#N)c3C)c2=O)c(=O)[nH]1` [Example 51, 5-(difluoromethyl)-3-((1-((2-(methoxymethyl)-4-methyl-6-oxo-1,6-dihydropyrimidin-5-yl)methyl)-6-oxo-4-(1,1,2,2-tetrafluoroethyl)-1,6-dihydropyrimidin-5-yl)oxy)-2-methylbenzonitrile], 6.40; for `Cc1nc(C)c(Cn2cnc(C(F)(F)C(F)(F)F)c(Oc3cc(Cl)cc(C#N)c3Cl)c2=O)c(=O)[nH]1` [Example 80, 2,5-dichloro-3-((1-((2,4-dimethyl-6-oxo-1,6-dihydropyrimidin-5-yl)methyl)-6-oxo-4-(perfluoroethyl)-1,6-dihydropyrimidin-5-yl)oxy)benzonitrile], 6.47.
Consider `Cc1nc(CCCO)[nH]c(=O)c1Cn1cnc(C(F)(F)C(F)F)c(Oc2cc(C(F)F)cc(C#N)c2C)c1=O` [Example 49, 5-(difluoromethyl)-3-((1-((2-(3-hydroxypropyl)-4-methyl-6-oxo-1,6-dihydropyrimidin-5-yl)methyl)-6-oxo-4-(1,1,2,2-tetrafluoroethyl)-1,6-dihydropyrimidin-5-yl)oxy)-2-methylbenzonitrile], for which the pEC50 was 6.56.
For `Cc1nc(C)c(Cn2cnc(C(F)(F)F)c(Oc3cc(Br)cc(C#N)c3Cl)c2=O)c(=O)[nH]1` [Example 89, 5-bromo-2-chloro-3-((1-((2,4-dimethyl-6-oxo-1,6-dihydro-pyrimidin-5-yl)methyl)-6-oxo-4-(trifluoromethyl)-1,6-dihydropyrimidin-5-yl)oxy) benzonitrile] the value was 6.36.
For `Cc1nc(N)c(Cn2cnc(C(F)(F)C(F)F)c(Oc3cc(Cl)cc(C#N)c3F)c2=O)c(=O)[nH]1` [Example 39, 3-((1-((4-amino-2-methyl-6-oxo-1,6-dihydropyrimidin-5-yl)methyl)-6-oxo-4-(1,1,2,2-tetrafluoroethyl)-1,6-dihydropyrimidin-5-yl)oxy)-5-chloro-2-fluorobenzonitrile] the value was 6.58; for `COc1cc(C#N)cc(C)c1Oc1c(C(F)(F)C(F)(F)F)ncn(Cc2c(C)nc(C)[nH]c2=O)c1=O` [Example 76, 4-((1-((2,4-dimethyl-6-oxo-1,6-dihydropyrimidin-5-yl)methyl)-6-oxo-4-(perfluoroethyl)-1,6-dihydropyrimidin-5-yl)oxy)-3-methoxy-5-methylbenzonitrile], 6.30.
The figure for `Cc1nc(C)c(Cn2cnc(C(F)(F)C(F)F)c(Oc3cc(C(F)(F)F)cc(C#N)c3Cl)c2=O)c(=O)[nH]1` [Example 94, 2-chloro-3-((1-((2,4-dimethyl-6-oxo-1,6-dihydropyrimidin-5-yl)methyl)-6-oxo-4-(1,1,2,2-tetrafluoroethyl)-1,6-dihydropyrimidin-5-yl)oxy)-5-(trifluoromethyl)benzonitrile] is 6.31.
Consider `Cc1c(C#N)cc(C(F)F)cc1Oc1c(C(F)(F)C(F)F)ncn(Cc2cnc(CCCO)[nH]c2=O)c1=O` [Example 46, 5-(difluoromethyl)-3-((1-((2-(3-hydroxypropyl)-6-oxo-1,6-dihydropyrimidin-5-yl)methyl)-6-oxo-4-(1,1,2,2-tetrafluoroethyl)-1,6-dihydropyrimidin-5-yl)oxy)-2-methylbenzonitrile], for which the pEC50 is 6.52.
The figure for `Cc1nc(C)c(Cn2cnc(C(C)F)c(Oc3cc(C(F)F)cc(C#N)c3F)c2=O)c(=O)[nH]1` (single isomer, unassigned) [Example 32, (S) or (R)-5-(difluoromethyl)-3-((1-((2,4-dimethyl-6-oxo-1,6-dihydropyrimidin-5-yl)methyl)-4-(1-fluoroethyl)-6-oxo-1,6-dihydropyrimidin-5-yl)oxy)-2-fluorobenzonitrile] is 6.77.
For `Cc1nc(C)c(Cn2cnc(C(F)(F)C(F)F)c(Oc3cc(Cl)cc(C#N)c3F)c2=O)c(=O)[nH]1` [Example 81, 5-chloro-3-((1-((2,4-dimethyl-6-oxo-1,6-dihydropyrimidin-5-yl)methyl)-6-oxo-4-(1,1,2,2-tetrafluoroethyl)-1,6-dihydropyrimidin-5-yl)oxy)-2-fluorobenzonitrile] the value was 6.81; for `Cc1nc(N)c(Cn2cnc(C(C)(F)F)c(Oc3cc(Cl)cc(C#N)c3F)c2=O)c(=O)[nH]1` [Example 58, 3-((1-((4-amino-2-methyl-6-oxo-1,6-dihydropyrimidin-5-yl)methyl)-4-(1,1-difluoroethyl)-6-oxo-1,6-dihydropyrimidin-5-yl)oxy)-5-chloro-2-fluorobenzonitrile], 6.60; for `Cc1nc(C)c(Cn2cnc(C(F)(F)C(F)(F)F)c(Oc3cc(Br)cc(C#N)c3)c2=O)c(=O)[nH]1` [Example 86, 3-bromo-5-((1-((2,4-dimethyl-6-oxo-1,6-dihydropyrimidin-5-yl)methyl)-6-oxo-4-(perfluoroethyl)-1,6-dihydro-pyrimidin-5-yl)oxy)benzonitrile], 6.33.
The figure for `COc1c(C#N)cc(C(F)F)cc1Oc1c(C(C)(F)F)ncn(Cc2c(C)nc(C)[nH]c2=O)c1=O` [Example 9, 3-((4-(1,1-difluoroethyl)-1-((2,4-dimethyl-6-oxo-1,6-dihydropyrimidin-5-y1)methyl)-6-oxo-1,6-dihydropyrimidin-5-yl)oxy)-5-(difluoromethyl)-2-methoxybenzonitrile] is 6.54; for `Cc1nc(C)c(Cn2cnc(C(F)(F)C(F)(F)F)c(Oc3cc(C#N)cc(C(F)F)c3)c2=O)c(=O)[nH]1` [Example 84] it is 6.54; for `Cc1nc(C)c(Cn2cnc(C(F)(F)C(F)(F)F)c(Oc3cccc(C#N)c3F)c2=O)c(=O)[nH]1` [Example 85, 3-((1-((2,4-dimethyl-6-oxo-1,6-dihydropyrimidin-5-yl)methyl)-6-oxo-4-(perfluoroethyl)-1,6-dihydropyrimidin-5-yl)oxy)-2-fluorobenzonitrile] it is 6.36.
Take `Cc1nc(C)c(Cn2cnc(C(F)(F)F)c(Oc3cc(C(F)F)cc(C#N)c3C)c2=O)c(=O)[nH]1` [Example 8, 5-(difluoromethyl)-3-((1-((2,4-dimethyl-6-oxo-1,6-dihydropyrimidin-5-y1)methyl)-6-oxo-4-(trifluoromethyl)-1,6-dihydropyrimidin-5-y1)oxy)-2-methylbenzonitrile]: the pEC50 is 6.60.
For `Cc1cc(C#N)cc(Oc2c(C(F)(F)C(F)(F)F)ncn(Cc3c(C)nc(C)[nH]c3=O)c2=O)c1` [Example 88] the value was 6.40; for `Cc1nc(C)c(Cn2cnc(C(C)(F)F)c(Oc3cc(Cl)cc(C#N)c3F)c2=O)c(=O)[nH]1` [Example 22, 5-Chloro-3-((4-(1,1-difluoroethyl)-1-((2,4-dimethyl-6-oxo-1,6-dihydropyrimidin-5-yl)methyl)-6-oxo-1,6-dihydropyrimidin-5-yl)oxy)-2-fluorobenzonitrile], 6.74.
For `COC(=O)CCc1nc(C)c(Cn2cnc(C(F)(F)C(F)(F)F)c(Oc3cc(Cl)cc(C#N)c3F)c2=O)c(=O)[nH]1` [Example 56, Methyl 3-(5-((5-(5-chloro-3-cyano-2-fluorophenoxy)-6-oxo-4-(perfluoroethyl)pyrimidin-1 (6H)-yl)methyl)-4-methyl-6-oxo-1,6-dihydropyrimidin-2-yl)propanoate] the value was 6.79; for `COCCCc1nc(C)c(Cn2cnc(C(F)(F)C(F)(F)F)c(Oc3cc(Cl)cc(C#N)c3F)c2=O)c(=O)[nH]1` [Example 55, 5-chloro-2-fluoro-3-((1-((2-(3-methoxypropyl)-4-methyl-6-oxo-1,6-dihydropyrimidin-5-yl)methyl)-6-oxo-4-(perfluoroethyl)-1,6-dihydropyrimidin-5-yl)oxy)benzonitrile], 6.56.
For `Cc1c(C#N)cc(C(F)F)cc1Oc1c(C(F)(F)C(F)F)ncn(Cc2cnc(N)[nH]c2=O)c1=O` [Example 57, 3-((1-((2-amino-6-oxo-1,6-dihydropyrimidin-5-yl)methyl)-6-oxo-4-(1,1,2,2-tetrafluoroethyl)-1,6-dihydropyrimidin-5-yl)oxy)-5-(difluoromethyl)-2-methylbenzonitrile] the value was 6.31; for `Cc1nc(C)c(Cn2cnc(C(F)(F)C(F)(F)F)c(Oc3c(F)ccc(C#N)c3F)c2=O)c(=O)[nH]1` [Example 71, 3-((1-((2,4-dimethyl-6-oxo-1,6-dihydropyrimidin-5-yl)methyl)-6-oxo-4-(perfluoroethyl)-1,6-dihydropyrimidin-5-yl)oxy)-2,4-difluorobenzonitrile], 6.83; for `Cc1nc(COc2ncccn2)[nH]c(=O)c1Cn1cnc(C(C)(F)F)c(Oc2cc(C(F)F)cc(C#N)c2C)c1=O` [Example 25, 3-((4-(1,1-difluoroethyl)-1-((4-methyl-6-oxo-2-((pyrimidin-2-yloxy)methyl)-1,6-dihydropyrimidin-5-yl)methyl)-6-oxo-1,6-dihydropyrimidin-5-yl)oxy)-5-(difluoromethyl)-2-methylbenzonitrile], 6.45.

For the origin of these results see patent US12258329B2 (Merck Sharp & Dohme LLC, priority 2018, dated 2025).
